Measured values as given in patent US20190177774A1, “MOLECULAR REFERENCE CONTROLS” (STRECK, INC., priority 2016, published 2019).

Tests used:
Assay in all cases: Time to stabilization (viability and sterility after addition of stabilizer)
E. coli = type: cell-based, Escherichia coli
Experimental: (§1) In one example, bacterial cells containing target gene sequences were stabilized with various cross-linkers and evaluated by microbiological methods. Viability and sterility were evaluated at various time points following addition of stabilizer. Time to stabilization was evaluated for particular bacteria/stabilizer combinations as shown below in Table 1.

N. sicca = type: cell-based, Neisseria sicca
Experimental: as §1

C. psuedo = type: cell-based, Corynebacterium pseudodiphtheriticum
Experimental: as §1

Row | Compound | Time to Stabilization (E. coli) [days] | Time to Stabilization (N. sicca) [h] | Time to Stabilization (C. psuedo) [h]
1 | O=C(CCCCCCC(=O)ON1C(=O)CC(S(=O)(=O)O)C1=O)ON1C(=O)CC(S(=O)(=O)O)C1=O (centres unmarked) [Bis[sulfosuccinimidyl] Suberate] | >5 | – | –
2 | O=C(CCCCCCC(=O)ON1C(=O)CCC1=O)ON1C(=O)CCC1=O [Disuccinimidyl Suberate] | 5 | – | –
3 | C=O [Formaldehyde] | 1 | 24 | 24
4 | O=CCCCC=O [Glutaraldehyde] | 0.083 | 2 | 24
5 | o-Phthalaldehyde | 0.0104 | 2 | 24
